Experimental findings from PubChem BioAssay AID330 (DTP/NCI, 2004) are described below.

SMILES strings stand for the structures. Where “and” joins values, the source holds several entries; their conditions need not be identical. Equal entries are not always repeated. Inconclusive results and toxic doses are left out.

The subject of the test is P388 leukemia ip, CD2F1 mice, survival T/C. As to the kind of experiment: NCI In Vivo Anticancer Drug Screen. Data for tumor model P388 Leukemia (intraperitoneal) in CD2F1 (CDF1) mice. The note with it: endpoint: median survival time, higher = longer survival. Summed up: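 Mice carrying the transplanted tumor received test compound or vehicle. Survival was recorded in each group, and the value is the treated-group measurement divided by that of the vehicle-treated control group.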

Where [1] appears, read: dose: 50.0 mg/kg/injection, schedule: Q01DX005 (ip), vehicle: Klucel (hydroxypropylcellulose) (HPC).
Setting [2] is: dose: 100.0 mg/kg/injection, schedule: Q01DX005 (ip), vehicle: Klucel (hydroxypropylcellulose) (HPC).
Setting [3] is: dose: 200.0 mg/kg/injection, schedule: Q01DX005 (ip), vehicle: Klucel (hydroxypropylcellulose) (HPC).
Setting [4] is: dose: 50.0 mg/kg/injection, schedule: Q01DX009 (ip), vehicle: saline with Tween-80.
[5] abbreviates: dose: 100.0 mg/kg/injection, schedule: Q01DX009 (ip), vehicle: saline with Tween-80.
Where [6] appears, read: dose: 60.0 mg/kg/injection, schedule: Q01DX005 (ip), vehicle: saline with Tween-80.
[7] abbreviates: dose: 120.0 mg/kg/injection, schedule: Q01DX005 (ip), vehicle: saline with Tween-80.
[8] abbreviates: dose: 240.0 mg/kg/injection, schedule: Q01DX005 (ip), vehicle: saline with Tween-80.
[9] abbreviates: dose: 60.0 mg/kg/injection, schedule: Q01DX005 (ip), vehicle: saline.
[10] abbreviates: dose: 120.0 mg/kg/injection, schedule: Q01DX005 (ip), vehicle: saline.
The mark [11] stands for this setting: dose: 240.0 mg/kg/injection, schedule: Q01DX005 (ip), vehicle: saline.

`O=C(O)/C=C\C(=O)Nc1ccccn1`: the T/C was 109 % of control (dose: 5.0 mg/kg/injection, schedule: Q01DX009 (ip), vehicle: saline with Tween-80); 100 % of control (dose: 5.0 mg/kg/injection, schedule: Q01DX009 (ip), vehicle: saline); 100 % of control (dose: 10.0 mg/kg/injection, schedule: Q01DX009 (ip), vehicle: saline with Tween-80); 105 % of control (dose: 10.0 mg/kg/injection, schedule: Q01DX009 (ip), vehicle: saline); 104 % of control (dose: 20.0 mg/kg/injection, schedule: Q01DX009 (ip), vehicle: saline with Tween-80); 105 % of control (dose: 30.0 mg/kg/injection, schedule: Q01DX009 (ip), vehicle: saline). Also, the T/C (dose: 60.0 mg/kg/injection, schedule: Q01DX009 (ip), vehicle: saline) is 100 % of control.

With `CCCCOP(O)(=S)OCCCC.[Eu]`, the T/C (dose: 100.0 mg/kg/injection, schedule: Q04DX002 (ip), vehicle: saline with Tween-80) was 96 % of control; the T/C (dose: 200.0 mg/kg/injection, schedule: Q04DX002 (ip), vehicle: saline with Tween-80) is 91 % of control; the T/C (dose: 400.0 mg/kg/injection, schedule: Q04DX002 (ip), vehicle: saline with Tween-80) was 90 % of control.

Take `CC1(C)C[C@H]2C=C(C=O)[C@]34C[C@]3(C(=O)OC4O)[C@H]2C1` (stereo partly drawn): the T/C (dose: 0.18 mg/kg/injection, schedule: Q01DX009 (ip), vehicle: Klucel (hydroxypropylcellulose) (HPC)) is 103 % of control; the T/C (dose: 0.78 mg/kg/injection, schedule: Q01DX009 (ip), vehicle: Klucel (hydroxypropylcellulose) (HPC)) is 111 % of control and 120 % of control; the T/C (dose: 1.56 mg/kg/injection, schedule: Q01DX009 (ip), vehicle: Klucel (hydroxypropylcellulose) (HPC)) was 106 % of control and 117 % of control.

On to `CC1C(=O)C(Cl)(Cl)C1(C)C` (stereo not drawn), for which the T/C is, setting by setting: (dose: 100.0 mg/kg/injection, schedule: Q01DX001 (ip), vehicle: saline with Tween-80) 106 % of control; (dose: 200.0 mg/kg/injection, schedule: Q01DX001 (ip), vehicle: saline with Tween-80) 110 % of control.

Turning to `[CH3][Sn]([CH3])([S]P(=S)(c1ccccc1)c1ccccc1)[S]P(=S)(c1ccccc1)c1ccccc1`, the T/C was 118 % of control under setting [1] and 117 % of control under setting [2].

Turning to `CC1=C(CCCCCCCCCCCCCCC(C)O)C(=O)OC1=O` (stereo not drawn), the T/C (dose: 1.56 mg/kg/injection, schedule: Q01DX005 (ip), vehicle: Klucel (hydroxypropylcellulose) (HPC)) is 108 % of control; the T/C (dose: 3.12 mg/kg/injection, schedule: Q01DX005 (ip), vehicle: Klucel (hydroxypropylcellulose) (HPC)) is 108 % of control; the T/C (dose: 6.25 mg/kg/injection, schedule: Q01DX005 (ip), vehicle: Klucel (hydroxypropylcellulose) (HPC)) was 99 % of control; the T/C (dose: 12.5 mg/kg/injection, schedule: Q01DX005 (ip), vehicle: Klucel (hydroxypropylcellulose) (HPC)) is 99 % of control; the T/C under setting [1] is 89 % of control; the T/C under setting [2] is 92 % of control. Also, the T/C under setting [3] is 101 % of control and the T/C (dose: 400.0 mg/kg/injection, schedule: Q01DX005 (ip), vehicle: Klucel (hydroxypropylcellulose) (HPC)) was 87 % of control.

Regarding `COc1cc2cnc(-c3ccccc3)c(O)c2cc1OC`, the T/C runs as follows: (dose: 100.0 mg/kg/injection, schedule: Q04DX003 (ip), vehicle: suspension in saline) 98 % of control; (dose: 200.0 mg/kg/injection, schedule: Q04DX003 (ip), vehicle: suspension in saline) 94 % of control; (dose: 400.0 mg/kg/injection, schedule: Q04DX003 (ip), vehicle: suspension in saline) 94 % of control.

Regarding `c1ccc2c(c1)Nc1ncccc1S2`, the T/C was 99 % of control and 94 % of control under setting [4]; 92 % of control and 95 % of control under setting [5]; 107 % of control and 92 % of control (dose: 200.0 mg/kg/injection, schedule: Q01DX009 (ip), vehicle: saline with Tween-80); 108 % of control (dose: 400.0 mg/kg/injection, schedule: Q01DX009 (ip), vehicle: saline with Tween-80).

With `C[CH2][Sn]=[O].c1cc[c]([Ge]([c]2ccccc2)[c]2ccccc2)cc1`, the T/C is, setting by setting: (dose: 25.0 mg/kg/injection, schedule: Q01DX009 (ip), vehicle: saline) 96 % of control; (dose: 50.0 mg/kg/injection, schedule: Q01DX009 (ip), vehicle: saline) 88 % of control and 93 % of control and 96 % of control; (dose: 100.0 mg/kg/injection, schedule: Q01DX009 (ip), vehicle: saline) 101 % of control and 88 % of control; (dose: 200.0 mg/kg/injection, schedule: Q01DX009 (ip), vehicle: saline) 121 % of control and 88 % of control and 96 % of control.

Regarding `CCOC(=O)C1=CC2CCOC2O1` (stereo not drawn), the T/C under setting [6] was 95 % of control, the T/C under setting [7] is 95 % of control and the T/C under setting [8] was 101 % of control.

Take `CN(C)CCO`: the T/C reads like this: under setting [9], 104 % of control; under setting [10], 100 % of control; under setting [11], 118 % of control.

Regarding `COc1cccc2c1C(=O)c1c(O)c3c(c(O)c1C2=O)C[C@@](O)(/C(C)=N/NC(=O)c1ccccc1)C[C@@H]3OC1CC(N(C)C)C(O)C(C)O1` (stereo partly drawn), the T/C was 165 % of control (dose: 0.78 mg/kg/injection, schedule: Q01DX009 (ip), vehicle: water); 165 % of control (dose: 1.56 mg/kg/injection, schedule: Q01DX009 (ip), vehicle: water); 183 % of control and 192 % of control (dose: 3.13 mg/kg/injection, schedule: Q01DX009 (ip), vehicle: water); 103 % of control (dose: 12.5 mg/kg/injection, schedule: Q01DX009 (ip), vehicle: water).

Regarding `O=C1CSC(c2c(F)cccc2Cl)N1c1ncccn1` (stereo not drawn), the T/C is 109 % of control (dose: 60.0 mg/kg/injection, schedule: Q01DX005 (ip), vehicle: Klucel (hydroxypropylcellulose) (HPC)) and 111 % of control (dose: 120.0 mg/kg/injection, schedule: Q01DX005 (ip), vehicle: Klucel (hydroxypropylcellulose) (HPC)).

As to `CN(C)N1C(=O)c2ccccc2NC1c1ccccc1` (stereo not drawn), the T/C is, setting by setting: under setting [1], 87 % of control; under setting [2], 96 % of control; under setting [3], 94 % of control.

Consider `CCOC(=O)N1OC2C=CC1CC2` (stereo not drawn), for which the T/C runs as follows: under setting [6], 97 % of control; under setting [7], 102 % of control; under setting [8], 100 % of control.

`O=C1OC(OC/C(Br)=C(\Br)COC2OC(=O)C(Cl)=C2Cl)C(Cl)=C1Cl` (stereo not drawn): the T/C is 103 % of control (dose: 15.0 mg/kg/injection, schedule: Q01DX005 (ip), vehicle: saline with Tween-80); 103 % of control (dose: 30.0 mg/kg/injection, schedule: Q01DX005 (ip), vehicle: saline with Tween-80); 112 % of control under setting [6].

As to `CCS(=O)(=O)OCCCCOS(=O)(=O)CC`, the T/C is 100 % of control and 97 % of control (dose: 12.5 mg/kg/injection, schedule: Q01DX009 (ip), vehicle: saline with Tween-80); 103 % of control and 93 % of control (dose: 25.0 mg/kg/injection, schedule: Q01DX009 (ip), vehicle: saline with Tween-80); 115 % of control and 90 % of control under setting [4]; 114 % of control and 90 % of control under setting [5].

As for `O=C(/C=C/c1ccccc1)C/C(=N/O)C(=O)NO`, the T/C is 104 % of control under setting [9], 101 % of control under setting [10] and 103 % of control under setting [11].

Consider `C1CCC(C2CCCC[N-]2)[N-]C1.O.O.[Pd+2]` (stereo not drawn), for which the T/C (dose: 6.25 mg/kg/injection, schedule: Q04DX003 (ip), vehicle: Klucel (hydroxypropylcellulose) (HPC)) is 102 % of control; the T/C (dose: 6.25 mg/kg/injection, schedule: Q04DX003 (ip), vehicle: saline with Tween-80) is 96 % of control; the T/C (dose: 12.5 mg/kg/injection, schedule: Q04DX003 (ip), vehicle: Klucel (hydroxypropylcellulose) (HPC)) is 102 % of control; the T/C (dose: 12.5 mg/kg/injection, schedule: Q04DX003 (ip), vehicle: saline with Tween-80) is 104 % of control; the T/C (dose: 25.0 mg/kg/injection, schedule: Q04DX003 (ip), vehicle: Klucel (hydroxypropylcellulose) (HPC)) is 102 % of control; the T/C (dose: 25.0 mg/kg/injection, schedule: Q04DX003 (ip), vehicle: saline with Tween-80) is 98 % of control and 105 % of control. Moreover, the T/C is, setting by setting: (dose: 50.0 mg/kg/injection, schedule: Q04DX003 (ip), vehicle: Klucel (hydroxypropylcellulose) (HPC)) 101 % of control; (dose: 50.0 mg/kg/injection, schedule: Q04DX003 (ip), vehicle: saline with Tween-80) 96 % of control; (dose: 100.0 mg/kg/injection, schedule: Q04DX003 (ip), vehicle: saline with Tween-80) 97 % of control.
